The source of these data is patent US7256200B2, “Method and composition for potentiating an oplate analgesic” (The Board of Trustees of the University of Illinois, a body …, priority 2003, dated 2007).

Assay [1] is described as follows: Acute model of opioid tolerance (single s.c. morphine 100 mg/kg). The format is in vivo. Particulars: for prevention of opioid tolerance, acute model: administered simultaneously with morphine 100 mg/kg s.c., FIG. 6. From the text: (§1) Acute tolerance and dependence model is a method commonly used by researchers. […] In addition, the CaMKII inhibitor KN93 also was effective in reversing an already-established tolerance or dependence in the model (FIGS. 8 and 9). […] All effects are dose-dependent on the magnitude of inhibition of CaMKII.

Assay [2] concerns the target CaMKII (Homo sapiens, UniProt Q9UQM7). The following applies: structural analog of KN93 used as control; cited from earlier work.
Assay [3] has as its system protein kinase A. The following applies: at doses administered; cited from earlier work.
Assay [4] has as its system morphine-pelleted rats. As to the kind of experiment: Morphine antinociceptive tolerance in morphine-pelleted rats, 52° C. warm water tail-flick test. The format is in vivo, rat. Here is the method:
Individual groups of eight rats were implanted with i.th. catheters and allowed to recover for 5 to 7 days.
Individual groups of eight rats were implanted with i.th. catheters and allowed to recover for 5 to 7 days. […] KN93 dose-response effect was determined and compared to its effect in inhibiting CaMKII activity.
Male Sprague-Dawley rats (250-350 g) were used in all experiments.
For i.th. drug administration, rats were prepared according to the method described by Sakura et al. (1996). While under isoflurane anesthesia, an 8 cm length of PE10 tubing (32 gauge) was inserted through an incision made in the atlantooccipital membrane to the level of the lumbar enlargement. The catheter then was secured to the musculature at the site of incision, which then was closed. The rats were allowed 5 to 7 days to recover before experiments begin. […] Intrathecally administered substances were dissolved in saline and administered in a volume of 5 μl through a tubing with calibrated length connecting the i.th. catheter with the injection syringe. Progress of the injection was monitored carefully by observing the movement of a small air bubble (1 μl in volume) through the tubing. The catheter was cleared by flushing with 9 μl saline. In all cases, a dye was injected into the cannula at the termination of the experiment to ensure correct i.th. placement.
Briefly, while under isoflurane anesthesia, a 1.5 cm incision was made on the back of the animal. […] These pellets were left for less than 7 days unless otherwise indicated.
Latency to warm water tail withdrawal response was determined in the manner described previously (Wang et al., 2001, Vanderah et al., 2001). The one-third of distal tail was immersed into a water bath maintained at 52° C. […] The data were converted to % MPE (maximal possible effect), defined as 100×(test-control)/(cutoff-control), where control was the predrug observation, test was the postdrug observation, and cutoff was 10 seconds. Dose-response curves were generated over time to determine the time of peak effect, the dose producing 50% MPE (A50), and its confidence intervals (Tallarida et al., 1986).
For orientation: Thermal pain tests record how soon the animal reacts.

Assay [5] relates to PKC. The following applies: at doses administered; cited from earlier work.
Assay [6] in a line: Acute model of opioid dependence (single s.c. morphine 100 mg/kg). The format is in vivo.
Source text: as §1

The subject of assay [7] is mice. The experiment in a line: Chronic mouse model of opioid tolerance (s.c. 75 mg morphine pellet). The format is in vivo. The following applies: FIG. 5. From the text: Additional in vivo tests corroborated initial test results showing that administration of a CaMKII inhibitor reduces or eliminates opioid tolerance and dependence. […] Administration of a CaMKII inhibitor, i.e., KN93, effectively reversed the established tolerance to opioids (FIG. 5). The effect of KN93 is dose dependent.

The subject of assay [8] is CaMKII. As to the kind of experiment: Spinal CaMKII activity (pCaMKII Western blot) in morphine-pelleted rats. Particulars: lumbar spinal cord, morphine vs placebo pelleted rats, two pairs of animals, β-actin control; FIG. 4. The format is in vivo, rat. From the text:
The average increase of CaMKII activity from two pairs of animals was 250%.
Briefly, while under isoflurane anesthesia, a 1.5 cm incision was made on the back of the animal. Morphine and placebo pellets were implanted into the subcutaneous space and the incision was closed with wound clips. These pellets were left for less than 7 days unless otherwise indicated.
Rats were sacrificed by carbon dioxide inhalation and decapitated. The spinal column was cut through at the S1/S2 level. A 16-gauge needle was inserted in the sacral vertebral canal, attached to a syringe containing ice-cold saline, and the spinal cord was ejected through the cervical opening. The spinal cord was placed on ice in a glass Petri dish and rapidly dissected using a dissecting microscope. For consistency, the lumbar enlargement corresponding to the L1 to L6 spinal segments was excised and used for all assays. […]
Spinal segments or harvested SH-SY5Y cells were homogenized on ice in RIPA buffer (1% NP-40, 0.5% sodium deoxycholate, 0.1% sodium dodecyl sulfate (SDS), 5 mM EDTA in PBS, pH 7.4) (3 ml/g wet tissue, or 0.6 ml/10 cm dish) in the presence of protease inhibitors (0.05 mg/ml pepstatin, 0.05 mg/ml aprotinin, 0.1 mg/ml phenylmethylsulfonyl fluoride). […] ECL-detected bands were analyzed using a densitometer and. Quantity One analysis program (BioRad, Hercules, Calif.).

Structures are written as SMILES. Entries after “also recorded” stand apart in the source; their conditions may differ.

CaMKII (Homo sapiens, UniProt Q9UQM7), sequence (Q9UQM7 whole entry): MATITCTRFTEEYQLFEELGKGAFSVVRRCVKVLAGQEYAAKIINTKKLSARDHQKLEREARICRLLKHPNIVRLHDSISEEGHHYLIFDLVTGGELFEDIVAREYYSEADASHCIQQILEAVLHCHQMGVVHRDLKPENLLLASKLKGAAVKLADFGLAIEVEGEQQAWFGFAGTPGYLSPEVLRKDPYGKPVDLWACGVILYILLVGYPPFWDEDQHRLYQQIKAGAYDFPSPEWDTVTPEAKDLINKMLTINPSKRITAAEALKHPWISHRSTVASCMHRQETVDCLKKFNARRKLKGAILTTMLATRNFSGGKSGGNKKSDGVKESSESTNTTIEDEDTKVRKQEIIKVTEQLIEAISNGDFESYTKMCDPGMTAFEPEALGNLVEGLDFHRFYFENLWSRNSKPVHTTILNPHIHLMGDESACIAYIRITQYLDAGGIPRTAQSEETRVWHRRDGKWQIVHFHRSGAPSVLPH

For the compound `COc1ccc(S(=O)(=O)Nc2ccccc2CN(C)C/C=C/c2ccc(Cl)cc2)cc1` [KN92], in assay [1], the “prevention of opioid tolerance, acute model” value is reported as “does not affect opioid tolerance”. Moreover, in assay [2], the “inhibition of CaMKII” value is reported as “does not inhibit”.

As for `COc1ccc(S(=O)(=O)N(CCO)c2ccccc2CN(C)CC=Cc2ccc(Cl)cc2)cc1` [KN93], in assay [3], the “inhibition of protein kinase A” value is “does not inhibit”. The “effect on established morphine antinociceptive tolerance” value in assay [4] (KN93 15 nmol i.th. 15 minutes before i.th. morphine, 45 minutes before tail-flick, p<0.05 vs MS group, FIG. 3) is reported as “reversed; also recorded: blocked”. In assay [4] (KN93 alone, data not shown), the “effect on basal nociception” value was “did not alter”. Besides, the “effect on morphine-antinociception in naïve rats” value in assay [4] (naïve rats, data not shown) was “nor did KN93 affect”. The “effect on morphine-induced analgesia” value in assay [4] (summary of test results) is “does not affect”. In addition, in assay [5], the “inhibition of PKC” value is recorded as “does not inhibit”. In assay [1], the “prevention of opioid tolerance, acute model” value is “prevents opioid tolerance”. The “reversal of established opioid tolerance, acute model” value in assay [1] (already-established tolerance, FIG. 8) was “dose-dependently reverses”. In addition, the “prevention of opioid dependence, acute model” value in assay [6] (administered simultaneously with morphine 100 mg/kg s.c., FIG. 7) is “dose-dependently prevents”. For the same compound, in assay [6] (already-established dependence, FIG. 9), the “reversal of established opioid dependence, acute model” value is “dose-dependently reverses”. Further, in assay [7] (chronic morphine pellet), the “effect on established opioid tolerance, chronic model” value was “dose-dependently reverses”.

On to `CN1CC[C@]23c4c5ccc(O)c4O[C@H]2[C@@H](O)C=C[C@H]3[C@H]1C5` [morphine], for which the “average increase of CaMKII activity (pCaMKII content)” value in assay [8] turned out to be 250%. In addition, in assay [4] (two 75 mg morphine pellets s.c., day 5, i.th. morphine 10 μg, 30 minutes, FIG. 3), the “antinociceptive effect of acute i.th. morphine in morphine-pelleted vs placebo-pelleted rats” value is “significantly reduced antinociceptive effect”. For the same compound, in assay [7] (s.c. 75 mg controlled-release pellet up to seven days), the “antinociceptive effects of morphine after chronic morphine treatment” value is on record as “significantly reduced antinociceptive effects”.
